# Source: US6423855B1, “Cytoprotective compounds” (Virginia Commonwealth University, priority 1996, dated 2002)
# Key:
# pancreatin = experiment: degradation in vitro by pancreatin; format: in vitro ADME; conditions: commercial pancreatic enzyme preparation (Sigma)
# Source text: The compounds of the present invention are not generally hydrolyzed by pancreatic enzymes and are different from glycerol-based compounds in terms of their chemistry and metabolism. […] The resistance of PX-13 and PX-18 to metabolism by pancreatic enzymes supports their stability after oral administration.
# epidermis cell turnover = experiment: cell turnover rate (dansyl chloride); format: in vivo, human
# Experimental: Two PX compounds PX-11 and PX-13 were evaluated in a cream formulation prepared under GMP. The chemicals were formulated into a bland cream and evaluated in the following human or mouse skin tests: (1) occluded patch test for irritation; (2) cell turnover rate; (3) transepidermal water loss; (4) skin moisturization; and (5) reduction in erythema after induced sunburn. The human skin tests were conducted on three volunteer female subjects, ages 29-32; a cream base with no added active was included as a control, while the untreated skin served as an additional basis for evaluation. Sunburn tests were performed on a total of 30 hairless albino mice. 2. Cell turnover rate: This parameter was measured by adsorption of dansyl chloride, in which 3% dansyl chloride was incorporated into petrolatum. This salve was applied over a 2.5 cm diameter circular area in the upper arm and a patch applied. 24 hours later the patch was removed. The intensity of dansyl chloride fluorescence was indicative of the cell turnover rate in the epidermis.
# outer skin layers = experiment: skin moisturization (20 megahertz ultrasound); format: in vivo, human; conditions: for Ultrasound Density Score: 30 minutes after application
# Experimental: Two PX compounds PX-11 and PX-13 were evaluated in a cream formulation prepared under GMP. The chemicals were formulated into a bland cream and evaluated in the following human or mouse skin tests: (1) occluded patch test for irritation; (2) cell turnover rate; (3) transepidermal water loss; (4) skin moisturization; and (5) reduction in erythema after induced sunburn. The human skin tests were conducted on three volunteer female subjects, ages 29-32; a cream base with no added active was included as a control, while the untreated skin served as an additional basis for evaluation. Sunburn tests were performed on a total of 30 hairless albino mice. 4. Skin moisturization. Skin moisturization was measured using 20 megahertz ultrasound (the presence of moisture produces a density decrease in the outer skin layers), before and 30 minutes after product application to the forearm.
# [1] = system: purified human disc PLA2 induced paw edema; experiment: human disc PLA2-induced mouse paw edema; format: in vivo
# Experimental: Edema was induced by injection of 1 ug of purified human disc PLA2 into the mouse footpad. PX-13 was administered either by gavage or intraperitoneally (IP) 60 min prior to enzyme challenge. Forty-five min after enzyme injection, the animals were sacrificed and the control and injected paws were removed and weighed to assess edema.
# [2] = system: human NP-homogenate induced paw edema; experiment: nucleus pulposus (NP)-induced mouse paw edema; format: in vivo
# Experimental: Human NP-homogenate was prepared according to the following protocol and stored frozen until use. Human vertebral discs were thawed and the tissue pieces were washed twice with isotonic saline. Tissue samples were homogenized in a minimum volume of isotonic saline using a Brinkman homogenizer. This homogenate was filtered through two layers of cheesecloth and the resultant filtrate was subjected to Dounce homogenization. This homogenate was again filtered through two layers of cheesecloth and the filtrate was capable of passing through a 26-gauge needle; 50 ul of the filtrate was administered to each mouse paw.
# The filtrate contained 1.57 mg/ml of protein and its PLA2 activity was 12.8% hydrolysis of 10 nmols of E.coli phospholipid/10 ul filtrate/30 min. incubation at 37° C. Therefore, each mouse paw received 78.5 ug NP filtrate. This sample of 78,500 ng total protein contained approximately 4.3 ng NP PLA2 protein. By comparison, we use 500-2000 ng of highly purified PLA2 to induce edema in this mouse model; and under these experimental conditions the maximal edema achieved is 160% of the contralateral paw minus 4-7% edema due to saline injection alone.
# The data are expressed as percent of contralateral paw and as percent of maximal edema achieved with purified PLA2. Fifty ul (78.5 ug) was injected into the paw 30 min. after the mice were treated with PX-13 in HEPES administered IP or by gavage at 30 or 60 mg/kg. After 3 hrs,the paws were excised and weighed.
# small bowel graft = experiment: small bowel transplantation ischemia-reperfusion injury; format: in vivo, rat
# Experimental: These drugs were also tested for their ability to enhance the preservation of tissues stored for subsequent transplantation. The small bowel was removed from rats, washed free of luminal contents and the tissue stored in University of Wisconsin (UW) preservative media ±40 uM PX-13 or mepacrine for 48 hrs. The graft was then transplanted into rats with or without intravenous (IV) infusion of 20 mg/kg PX-13 or mepacrine at the time of transplantation.
# clone W2 (P.falciparum) = experiment: 3H-hypoxanthine incorporation, P.falciparum clone W2; format: cell-based; conditions: Plasmodium falciparum, W2; chloroquine resistant, mefloquine sensitive clone, RBC culture; read-out: IC50 growth
# clone D6 (P. falciparum) = experiment: 3H-hypoxanthine incorporation, P.falciparum clone D6; format: cell-based; conditions: Plasmodium falciparum, D6, read-out: IC50 growth
# [3] = system: thrombin-stimulated platelets; experiment: serotonin release by thrombin-stimulated platelets; format: cell-based
# Source text: Applicants have also observed that PX-13 inhibited serotonin release by thrombin-stimulated platelets. This observation supports the contention that the PX compounds of the present invention may block release of inflammatory mediators in the coagulation cascade. This observation also supports the use of PX compounds to inhibit thrombin-induced platelet aggregation and to act as anti-clotting agents.
# mice = experiment: acute toxicity (LD50 study), single IP dose; format: in vivo
# Experimental: An LD50 study was conducted to determine a lethal dose for PX-13 suspended in HEPES buffer at a pH of 7.4. A single IP dose of 50, 100, 200 or 400 mg/kg was administered to mice (n=6 per group). […] No necropsy was performed.
smiles,measurement,setting,value
"CCCCCCCC/C=C\CCCCCCCC(=O)OCC(COC(=O)CCCCCCC/C=C\CCCCCCCC)(COC(=O)CCCCCCC/C=C\CCCCCCCC)NCCS(=O)(=O)O [PX-13, 2-[Tris(oleoyloxymethyl)methylamino]-1-ethanesulfonic acid]",degradation in vitro by pancreatin,pancreatin,resistant to degradation
same,Days to Cell Renewal Treated,"epidermis cell turnover; cream-treated skin, upper arm",21.6 days
same,% Change in Cell Turnover Time,epidermis cell turnover; treated vs untreated skin,−29%
same,Ultrasound Density Score,"outer skin layers; Subject 1, 7 = Best, 1 = Baseline",1
same,Ultrasound Density Score,outer skin layers; Subject 2,2
same,Ultrasound Density Score,outer skin layers; Subject 3,−1
same,Ultrasound Density Score Total,"outer skin layers; Total of 3 subjects, 7 = Best, 1 = Baseline",2
same,moisturization properties,outer skin layers; in vivo,not good moisturizers
same,Percent Protection,"[1]; 20 mg/kg gavage, 60 min prior to enzyme, paws weighed 45 min after",33%
same,Percent Protection,[1]; 40 mg/kg IP,48%
same,Percent Protection,[1]; 40 mg/kg gavage,55%
same,Percent Protection,[1]; 60 mg/kg gavage,63%
same,Percent Edema,[2]; Gavage 30 mg/kg,122 ± 5.6%
same,Percent Edema,[2]; Gavage 60 mg/kg,118 ± 2.0%
same,Percent of Maximal,[2]; Gavage 60 mg/kg,22%
same,Percent Inhibition,"[2]; Gavage 60 mg/kg, 60 mg/kg",36%
same,Percent Inhibition,[2]; IP 30 mg/kg,24%
same,Percent of Maximal,"[2]; IP 30 mg/kg, maximal edema with purified PLA2 = 54%",26%
same,Percent Edema,"[2]; IP 30 mg/kg, percent of contralateral paw, 3 hrs",120 ± 2.0%
same,Percent Edema,[2]; IP 60 mg/kg,115 ± 1.6%
same,Percent of Maximal,[2]; IP 60 mg/kg,17%
same,Percent Inhibition,"[2]; IP 60 mg/kg, 60 mg/kg",50%
same,gross and microscopic injury to tissue,"small bowel graft; 40 uM in UW media 48 hrs, with or without 20 mg/kg IV at transplantation",dramatically reduced
same,bowel color after transplantation,"small bowel graft; rat, in vivo",maintained normal bowel color
same,protection against ischemia and reperfusion injury,small bowel graft; small bowel transplantation,protect
same,IC50,clone W2 (P.falciparum),13 µg/mL
same,IC50,clone D6 (P. falciparum),17 µg/mL
same,serotonin release,[3],inhibited
same,deaths at 144 hrs,"mice; 400 mg/kg group, n=6",one animal in the 400 mg/kg group died
same,tolerability,"mice; mouse, in vivo",extremely well tolerated
